These compounds were tested against T1, MELK (Homo sapiens, UniProt Q14680) (assay: Z′-LYTE biochemical assay (Life Technologies), MELK inhibition).
T1 construct: purchased Life Technologies
Method: The invention also provides methods for inhibiting MELK, comprising contacting MELK with a compound of the invention in an amount effective to inhibit MELK. In certain embodiments, the method is conducted in vitro. In certain embodiments, the method is conducted in vivo. Inhibition of MELK can be determined by the Z′-LYTE® biochemical assay from Life Technologies (Life Technologies Z′-LYTE® Screening Protocol and Assay Conditions, June 2012, incorporated herein by reference).
The following compounds were made according to the general scheme shown in Example 1. IC50 against MELK was determined by Z′-LYTE® biochemical assay at 25 uM ATP concentration, and are measured in nM.

T1 sequence (Q14680 whole entry): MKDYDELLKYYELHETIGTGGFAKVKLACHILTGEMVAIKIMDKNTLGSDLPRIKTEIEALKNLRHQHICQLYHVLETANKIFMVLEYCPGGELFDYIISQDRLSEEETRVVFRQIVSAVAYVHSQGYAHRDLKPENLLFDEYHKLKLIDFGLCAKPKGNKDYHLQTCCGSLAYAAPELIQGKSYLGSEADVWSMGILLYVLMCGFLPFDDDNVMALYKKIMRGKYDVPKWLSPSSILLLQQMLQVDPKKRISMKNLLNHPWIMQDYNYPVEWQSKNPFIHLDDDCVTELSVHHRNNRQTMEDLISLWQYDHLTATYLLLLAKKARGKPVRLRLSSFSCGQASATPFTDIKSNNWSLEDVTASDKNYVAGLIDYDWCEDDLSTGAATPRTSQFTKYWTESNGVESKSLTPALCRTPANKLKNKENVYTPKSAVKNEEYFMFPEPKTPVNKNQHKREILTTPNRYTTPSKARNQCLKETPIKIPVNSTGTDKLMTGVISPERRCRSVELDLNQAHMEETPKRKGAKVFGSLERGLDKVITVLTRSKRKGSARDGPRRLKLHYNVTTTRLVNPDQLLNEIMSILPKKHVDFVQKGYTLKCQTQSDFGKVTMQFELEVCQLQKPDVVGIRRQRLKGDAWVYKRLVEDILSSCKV

SMILES | IC50 [nM]
O=C(Nc1ccccc1)c1ccc(-c2cn[nH]c2)cc1OCc1ccccc1 | 1160
O=C(Nc1ccc2c(c1)CCNCC2)c1ccc(-c2cn[nH]c2)cc1OC1Cc2ccccc2C1 | 1.05
O=C(Nc1ccc2c(c1)CCNCC2)c1ccc(-c2cn[nH]c2)cc1OC1CCCCC1 | 2.99
O=C(Nc1ccc2c(c1)CCNCC2)c1ccc(-c2cn[nH]c2)cc1OCC1CCCCC1 | 5.48
O=C(Nc1ccc2c(c1)CCNCC2)c1ccc(-c2cn[nH]c2)cc1OCc1cccnc1 | 16.2
O=C(Nc1ccc2c(c1)CCNCC2)c1ccc(-c2cn[nH]c2)cc1OC(CN1CCCC1)c1ccccc1 (centres unmarked) | 213
O=C(Nc1ccc2c(c1)CCNCC2)c1ccc(-c2cn[nH]c2)cc1OCCN1CCCC1 | 75.1
O=C(Nc1ccc2c(c1)CCNCC2)c1ccc(-c2cn[nH]c2)cc1OCCN1CCCC1=O | 80.6
O=C(Nc1ccc2c(c1)CCNCC2)c1ccc(-c2cn[nH]c2)cc1OCCN1CCOCC1 | 85.3
O=C(Nc1ccc2c(c1)CCNCC2)c1ccc(-c2cn[nH]c2)cc1O | 68.8
O=C(Nc1ccc2c(c1)CCNCC2)c1ccc(-c2cn[nH]c2)cc1OCc1ccccc1 [Compound 02-102, 2-(benzyloxy)-4-(1H-pyrazol-4-yl)-N-(2,3,4,5-tetrahydro-1H-benzo[d]azepin-7-yl)benzamide] | 2.17
O=C(Nc1cccc2c1CCNCC2)c1ccc(-c2cn[nH]c2)cc1OCc1ccccc1 [Compound 02-103] | 134
O=C(Nc1ccc2c(c1)CCNCC2)c1ccc(-c2cc(Cl)c(O)c(Cl)c2)cc1OCc1ccccc1 [Compound 02-104, 3-(benzyloxy)-3′,5′-dichloro-4′-hydroxy-N-(2,3,4,5-tetrahydro-1H-benzo[d]azepin-7-yl)-[1,1′-biphenyl]-4-carboxamide] | 1.92
CC(=O)N1CCc2ccc(NC(=O)c3ccc(-c4cn[nH]c4)cc3OCc3ccccc3)cc2CC1 [Compound 02-111, N-(3-acetyl-2,3,4,5-tetrahydro-1H-benzo[d]azepin-7-yl)-2-(benzyloxy)-4-(1H-pyrazol-4-yl)benzamide] | 60.6

From patent US10875844B2, “Salicylate inhibitors of MELK and methods of use” (priority 2015, dated 2020)
